Key:
[1] = molecular target: IGFR1 (Homo sapiens, UniProt P08069); test: Luminex bead sandwich assay of IGFR1 autophosphorylation in HT29 cell lysate after IGF activation; assay type: cell-based; conditions: HT29 cells, 30 μM inhibitor 45 min, IGF 100 ng/ml
[2] = molecular target: FAK (Homo sapiens, UniProt Q05397); test: Luminex bead sandwich assay of FAK autophosphorylation in HT29 cell lysate after FCS activation; assay type: cell-based; conditions: HT29 cells, 30 μM inhibitor 45 min
[3] = molecular target: Met (Homo sapiens, UniProt P08581); test: Luminex bead sandwich assay of Met autophosphorylation in HT29 cell lysate after HGF activation; conditions: HT29 cells, 30 μM inhibitor 45 min, HGF 100 ng/ml
Chain of Met (P08581 25-1390): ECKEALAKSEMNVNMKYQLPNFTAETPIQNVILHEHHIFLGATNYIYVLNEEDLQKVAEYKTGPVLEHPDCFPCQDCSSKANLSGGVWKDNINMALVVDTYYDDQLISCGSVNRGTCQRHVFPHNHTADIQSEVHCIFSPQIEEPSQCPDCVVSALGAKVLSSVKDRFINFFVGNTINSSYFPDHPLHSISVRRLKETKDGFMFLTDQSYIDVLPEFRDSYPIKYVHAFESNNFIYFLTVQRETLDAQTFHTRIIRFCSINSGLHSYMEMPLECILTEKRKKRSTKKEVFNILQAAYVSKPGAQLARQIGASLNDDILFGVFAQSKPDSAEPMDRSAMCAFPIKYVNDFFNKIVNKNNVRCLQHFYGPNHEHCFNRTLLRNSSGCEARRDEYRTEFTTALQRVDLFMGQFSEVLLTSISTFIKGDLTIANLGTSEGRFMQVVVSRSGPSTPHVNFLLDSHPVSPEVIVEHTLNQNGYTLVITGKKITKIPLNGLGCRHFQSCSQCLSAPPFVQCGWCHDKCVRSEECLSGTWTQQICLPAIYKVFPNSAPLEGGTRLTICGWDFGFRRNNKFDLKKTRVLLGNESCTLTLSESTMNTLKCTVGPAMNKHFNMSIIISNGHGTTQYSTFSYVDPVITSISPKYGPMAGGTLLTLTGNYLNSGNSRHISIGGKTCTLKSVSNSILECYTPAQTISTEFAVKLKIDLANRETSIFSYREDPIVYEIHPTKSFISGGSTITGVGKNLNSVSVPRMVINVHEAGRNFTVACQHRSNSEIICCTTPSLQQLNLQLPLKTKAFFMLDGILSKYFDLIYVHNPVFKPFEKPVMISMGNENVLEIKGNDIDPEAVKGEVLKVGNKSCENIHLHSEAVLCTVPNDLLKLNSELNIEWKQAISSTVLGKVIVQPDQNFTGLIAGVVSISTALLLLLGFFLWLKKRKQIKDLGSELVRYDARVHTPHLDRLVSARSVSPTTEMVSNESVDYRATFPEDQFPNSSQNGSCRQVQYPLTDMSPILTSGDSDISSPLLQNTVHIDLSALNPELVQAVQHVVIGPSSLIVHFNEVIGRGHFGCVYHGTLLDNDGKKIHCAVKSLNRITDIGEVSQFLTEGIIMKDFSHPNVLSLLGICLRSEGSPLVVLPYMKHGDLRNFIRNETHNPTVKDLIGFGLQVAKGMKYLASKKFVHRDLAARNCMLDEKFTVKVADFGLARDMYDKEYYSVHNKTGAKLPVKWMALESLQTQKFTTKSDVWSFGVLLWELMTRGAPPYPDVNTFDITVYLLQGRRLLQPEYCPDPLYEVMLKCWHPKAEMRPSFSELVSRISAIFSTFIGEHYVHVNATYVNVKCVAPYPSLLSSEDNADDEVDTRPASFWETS
Method: Human tumor cell line HT29 (colorectal carcinoma) were obtained from ATCC and maintained in Dulbecco's modified Eagle's medium containing 10% fetal calf serum at 37° C. in 5% CO2. 16-20 h before inhibitor treatment HT29 cells were starved in medium without fetal calf serum. Cells were incubated for 45 min with 30 μM kinase inhibitor (EGFR-lnhibitor, FAK-inhibitor, IGFR1-inhibitor or Met-Inhibitor) or in medium without kinase inhibitor as a positive control.
Activation of the kinases was initiated for 10-15 min with 100 ng/ml of the corresponding ligands EGF, IGF, HGF for Met kinase or fetal calf serum (FCS) for FAK kinase. […]
2.5×10^6 Luminex microspheres were coupled with 50 μg/ml antibody as described by the manufacturer (capture antibodies for EGFR, IGFR, MET and Fak were obtained from R&D-Systems and Upstate). […] After three wash steps with assay buffer, phosphorylated tyrosin-residues were detected with a biotinylated anti-phospho-tyrosin antibody (1 h agitation at room temperature; Santa Cruz Biotechnology) and phycoerythrin-conjugated Streptavidin (45 min agitation at room temperature; Dianova). Microspheres were analysed in a Luminex™ 100 machine as described by the manufacturer.

Chain of IGFR1 (P08069 31-1367): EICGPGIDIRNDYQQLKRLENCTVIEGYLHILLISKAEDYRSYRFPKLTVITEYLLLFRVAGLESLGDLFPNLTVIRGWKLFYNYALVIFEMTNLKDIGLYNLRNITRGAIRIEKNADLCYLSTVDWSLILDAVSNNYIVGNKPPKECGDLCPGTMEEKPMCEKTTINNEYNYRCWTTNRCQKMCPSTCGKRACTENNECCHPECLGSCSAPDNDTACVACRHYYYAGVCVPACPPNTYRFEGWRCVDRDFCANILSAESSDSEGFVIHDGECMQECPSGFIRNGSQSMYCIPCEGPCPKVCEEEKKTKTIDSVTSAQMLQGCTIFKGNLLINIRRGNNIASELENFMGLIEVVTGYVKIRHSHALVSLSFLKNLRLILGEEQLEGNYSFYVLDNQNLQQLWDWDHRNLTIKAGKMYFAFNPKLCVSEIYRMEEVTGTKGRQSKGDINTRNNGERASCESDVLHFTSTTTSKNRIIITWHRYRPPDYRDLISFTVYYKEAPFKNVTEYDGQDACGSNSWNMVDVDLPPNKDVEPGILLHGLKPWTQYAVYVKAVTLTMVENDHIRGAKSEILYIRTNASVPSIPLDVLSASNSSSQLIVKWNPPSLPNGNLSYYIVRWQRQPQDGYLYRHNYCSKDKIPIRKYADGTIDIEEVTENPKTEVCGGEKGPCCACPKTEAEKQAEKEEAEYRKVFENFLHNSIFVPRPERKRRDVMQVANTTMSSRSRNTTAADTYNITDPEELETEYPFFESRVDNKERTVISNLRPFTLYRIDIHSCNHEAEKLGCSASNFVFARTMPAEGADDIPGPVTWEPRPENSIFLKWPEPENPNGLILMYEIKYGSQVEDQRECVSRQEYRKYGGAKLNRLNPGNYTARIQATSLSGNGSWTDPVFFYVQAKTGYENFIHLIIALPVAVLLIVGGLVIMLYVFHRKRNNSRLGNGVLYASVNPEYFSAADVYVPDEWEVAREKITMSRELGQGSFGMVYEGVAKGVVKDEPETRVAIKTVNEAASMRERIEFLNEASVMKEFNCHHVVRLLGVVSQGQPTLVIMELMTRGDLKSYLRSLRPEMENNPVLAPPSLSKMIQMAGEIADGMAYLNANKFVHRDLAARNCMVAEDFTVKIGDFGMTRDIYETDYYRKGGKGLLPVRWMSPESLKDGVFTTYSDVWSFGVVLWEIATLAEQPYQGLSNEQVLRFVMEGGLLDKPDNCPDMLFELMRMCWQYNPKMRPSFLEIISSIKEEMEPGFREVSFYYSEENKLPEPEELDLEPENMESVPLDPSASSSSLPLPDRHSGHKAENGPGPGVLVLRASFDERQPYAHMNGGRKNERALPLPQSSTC
Chain of FAK (Q05397 whole entry): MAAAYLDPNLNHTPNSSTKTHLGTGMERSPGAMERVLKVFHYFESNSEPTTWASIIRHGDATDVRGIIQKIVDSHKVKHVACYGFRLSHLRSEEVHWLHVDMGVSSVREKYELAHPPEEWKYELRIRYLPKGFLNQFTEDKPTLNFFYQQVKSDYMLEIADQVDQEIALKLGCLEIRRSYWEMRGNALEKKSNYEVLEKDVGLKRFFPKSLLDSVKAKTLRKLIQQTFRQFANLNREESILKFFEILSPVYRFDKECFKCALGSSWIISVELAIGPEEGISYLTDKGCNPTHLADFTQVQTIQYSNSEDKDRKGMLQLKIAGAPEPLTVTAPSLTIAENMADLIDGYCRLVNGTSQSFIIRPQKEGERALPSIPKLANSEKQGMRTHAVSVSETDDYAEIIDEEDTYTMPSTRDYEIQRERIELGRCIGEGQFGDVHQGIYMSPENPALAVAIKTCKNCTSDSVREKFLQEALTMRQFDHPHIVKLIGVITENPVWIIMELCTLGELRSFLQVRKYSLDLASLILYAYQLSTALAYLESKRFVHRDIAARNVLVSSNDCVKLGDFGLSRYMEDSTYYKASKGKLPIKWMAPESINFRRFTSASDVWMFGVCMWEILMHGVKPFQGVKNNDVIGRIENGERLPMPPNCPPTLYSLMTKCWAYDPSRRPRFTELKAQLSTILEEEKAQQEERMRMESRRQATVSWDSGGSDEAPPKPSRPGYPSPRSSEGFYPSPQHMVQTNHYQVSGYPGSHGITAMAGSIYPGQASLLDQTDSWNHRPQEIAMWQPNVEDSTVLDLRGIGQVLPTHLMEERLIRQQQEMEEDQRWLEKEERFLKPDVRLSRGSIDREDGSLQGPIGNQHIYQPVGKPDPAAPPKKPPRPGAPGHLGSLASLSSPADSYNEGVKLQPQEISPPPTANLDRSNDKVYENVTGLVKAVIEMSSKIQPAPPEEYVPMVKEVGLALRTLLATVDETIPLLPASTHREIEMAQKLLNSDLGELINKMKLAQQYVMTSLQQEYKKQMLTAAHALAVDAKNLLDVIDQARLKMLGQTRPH

Row | SMILES | IGFR1-phosphorylation, mean fluorescence intensity (MFI) ([1]; multiple capture antibodies (EGFR, IGFR, FAK, Met) in one cavity, control without inhibitor MFI=673) | IGFR1-phosphorylation, mean fluorescence intensity (MFI) ([1]; single capture antibody (IGFR1) in one cavity, control without inhibitor MFI=529) | FAK-phosphorylation, mean fluorescence intensity (MFI) ([2]; multiple capture antibodies (EGFR, IGFR, FAK, Met) in one cavity, control without inhibitor MFI=1143) | FAK-phosphorylation, mean fluorescence intensity (MFI) ([2]; single capture antibody (FAK) in one cavity, control without inhibitor MFI=957) | Met-phosphorylation, mean fluorescence intensity (MFI) ([3]; multiple capture antibodies (EGFR, IGFR, FAK, Met) in one cavity, control without inhibitor MFI=817) | Met-phosphorylation, mean fluorescence intensity (MFI) ([3]; single capture antibody (Met) in one cavity, control without inhibitor MFI=675)
1 | COc1cc(Nc2nccc(Nc3cnc4ccccc4c3)n2)cc(OC)c1OC [FAK-Kinase inhibitor] | 3 | 3 | 39 | 37 | – | –
2 | Cc1[nH]c(/C=C2\C(=O)Nc3ccc(S(=O)(=O)Cc4c(Cl)cccc4Cl)cc32)c(C)c1C(=O)N1CCC[C@@H]1CN1CCCC1 [Met-Kinase inhibitor] | – | – | – | – | 9 | 9

— US7981633B2, “Method for measuring tyrosine kinase phosphorylation” (Merck Patent GmbH, priority 2005, dated 2011)
